In one experiment the test system is orthotopic glioblastoma. As to the kind of experiment: Orthotopic glioblastoma mouse model. Format: in vivo. The conditions noted are these: for proliferation rate: 100 μM or 300 μM of TP5; for tumor volume: 100 μM or 300 μM of TP5, FIG. 5. The procedure: The effect of TP5 administration in an orthotopic glioblastoma mouse model additionally was determined. 100 μM or 300 μM of TP5 was administered to the mice and tumor volume and proliferation rate were investigated.

Experiment [1] deals with glioblastoma cell line U251. As to the kind of experiment: Viability of glioblastoma cell line U251. Format: cell-based. The conditions noted are these: FIG. 1. As to the method: (§1) The viability of glioblastoma cell line U251 following the administration of TP5 (SEQ ID NO: 1) was determined. TP5 scrambled (SEQ ID NO: 2) was used as a control.
In experiment [2] the test system is colorectal carcinoma cell line HT29. As to the kind of experiment: DNA damage measured by expression of pH2Ax in HT29. In kind it is cell-based. The conditions noted are these: FIG. 8.
For the next experiment, the system named is glioblastoma colonies. The experiment is described as follows: Number and viability of glioblastoma colonies. In kind it is cell-based. Conditions: different amounts of TP5; FIG. 2. As to the method:
as §1

For experiment [3], the system named is colorectal cancer colonies. As to the kind of experiment: Number and viability of colorectal cancer colonies. Conditions: different amounts of TP5; FIG. 7. Format: cell-based. The procedure:
(§2) The viability of colorectal carcinoma cell line HT29 following the administration of TP5 (SEQ ID NO: 1) was determined. TP5 scrambled (SEQ ID NO: 2) was used as a control.

The test system of experiment [4] is subcutaneous colorectal cancer. The experiment is described as follows: Subcutaneous colorectal cancer mouse model. Format: in vivo. The conditions noted are these: FIG. 9. As to the method:
The effect of TP5 administration alone or in combination with chemotherapy (Sn38; 7-ethyl-10-hydroxycamptothecin) in a subcutaneous colorectal cancer mouse model additionally was determined. TP5, Sn38, or TP5+Sn38 was administered to the mice and tumor volume and proliferation rate were investigated.

The test system of experiment [5] is colorectal carcinoma cell line HT29. The experiment is described as follows: Viability of colorectal carcinoma cell line HT29. Conditions: FIG. 6. Format: cell-based. The procedure: as §2
The test system of experiment [6] is glioblastoma cell line U251. The experiment is described as follows: Early and late apoptosis in glioblastoma cell line U251. Format: cell-based. Conditions: FIG. 3. As to the method: The extent of early and late apoptosis in glioblastoma cell line U251 also was determined.
Experiment [7] relates to glioblastoma cell line U251. The experiment is described as follows: DNA damage measured by expression of pH2Ax in U251. Format: cell-based. The conditions noted are these: FIG. 4. From the text: Although not wishing to be bound by any particular theory, TP5 is believed to increase DNA damage in a dose-dependent manner and impair DNA repair by reducing G2 phase and decreasing the phosphorylation of ATM.

Consider “TP5 scrambled: scrambled TP5 peptide (SEQ ID NO: 2) used as a control (FWDRCLSGKMSSKGGGINAYARAARRAARR) [reference compound]”, for which, in the experiment with orthotopic glioblastoma, the proliferation rate entry is “but not TP5 scrambled decreases the tumor volume and proliferation rate”; the tumor volume result is on record as “but not TP5 scrambled decreases the tumor volume”. Moreover, in experiment [1], the “viability of glioblastoma cell line” value was “but not TP5 scrambled decreased the viability of glioblastoma cell line”.

For the substance “TP5: P5, a small peptide that selectively inhibits aberrant and hyperactive CDK5/p25, modified to facilitate passage through blood brain barrier; SEQ ID NO: 1 (KEAFWDRCLSVINLMSSKMLQINAYARAARRAARR)”, the entries for the “DNA damage as measured by expression of pH2Ax” value in experiment [2] and in experiment [7] were “increases DNA damage in colorectal carcinoma cell line HT29 in a dose-dependent manner” and “increases DNA damage in glioblastoma cell line U251 in a dose-dependent manner”, respectively. In addition, the proliferation rate result in the experiment with orthotopic glioblastoma is “decreases the tumor volume and proliferation rate”. In addition, the tumor volume result is given as “decreases the tumor volume” in the experiment on orthotopic glioblastoma and “decreased the tumor volume of the mice” in experiment [4]. Further, the “number and viability of glioblastoma colonies” value with glioblastoma colonies is “decreased the number and viability of glioblastoma colonies in a dose-dependent manner”. Besides, in experiment [3], the “number and viability of colorectal cancer colonies” value was “decreased the number and viability of colorectal cancer colonies in a dose-dependent manner”. In addition, in experiment [5], the “viability of colorectal carcinoma cell line” value is given as “decreased the viability of glioblastoma cell line in a dose-dependent manner”. Moreover, the “early and late apoptosis” value in experiment [6] is “increases the early and late apoptosis of glioblastoma cells”. Also, the “viability of glioblastoma cell line” value in experiment [1] was “decreased the viability of glioblastoma cell line in a dose-dependent manner”.

Source of the values: patent publication US20220009980A1, “TP5, A PEPTIDE INHIBITOR OF ABERRANT AND HYPERACTIVE CDK5/P25 AS TREATMENT FOR CANCER” (The United States of America,as represented by the …, priority 2018, published 2022).
